In patent US8481522B2, “Platinum-N-heterocyclic carbene derivatives, preparation thereof and therapeutic use thereof” (Sanofi, priority 2008, dated 2013):
Values joined by “and” are separate entries in the source; they are usually repeats but may differ in a detail not shown here. Equal values may be shown once.

Key:
Type in all cases: cell-based
CCRF-CEM cells = experiment: Cytotoxicity, non-adherent CCRF-CEM cells, CellTiter-Glo luminescent cell viability; conditions: CCRF-CEM human T leukaemia, 96 h incubation
Procedure: CCRF-CEM is a human T leukaemia (Cancer 1965, 18: 522-529). Oxaliplatin induces bifunctional lesions such as inter- and intra-DNA strand adducts on these CCRF-CEM cells (Mol Pharmacol 2000, 58: 920-927). […] This deficiency makes these cells particularly […] to alkylating agents and to platinum compounds.
For the non-adherent CCRF-CEM cells, the cell viability is measured by the luminescence test CellTiter-Glo® Luminescent Cell Viability Assay (Promega, Madison, Wis., USA). When it is added to the cells, the reagent produces a luminescence in the presence of the ATP of the living cells. The results are evaluated on a suitable reader (Envision, Perkin-Elmer Life Sciences, Boston, Mass., USA).
The CCRF-CEM cells are cultured in RPMI1640 medium containing 10% foetal calf serum, 2 mM L-glutamine, 100 units/ml of penicillin and […] of streptomycin, at 37° C. in a 95% air/5% CO2 atmosphere. The cells, at the exponential growth phase, are introduced into the wells of a 96-well plate at the density of 5×10^3 cells per well in an opaque plate (Greiner), in a volume of 150 μl. After incubating for 4 h at 37° C. in a 95% air/5% CO2 atmosphere, the compounds (concentrated 20-fold) are added in a volume of 8 μl. The compounds are prepared beforehand as a stock solution at the concentration of 10 mM in DMSO. A serial dilution is performed before the compounds are brought into contact with the cells. After incubating for 96 h at 37° C., 100 μl of agents (CellTiter-Glo) are added. After lysing the cells, the release of ATP is evaluated on the Envision reader.
(§1) The IC50 values are evaluated from curves presenting the percentage viability as a function of the concentration of the test compound, using the Biostat speed software. The IC50 is defined as the concentration of the compound which inhibits 50% of the cell proliferation or 50% of the cell viability.

H460 = experiment: Cytotoxicity, adherent cells, 14C-thymidine incorporation (cell proliferation); conditions: NCI-H460 human non-small cell lung cancer, 96 h treatment
Procedure: NCI-H460 is a human non-small cell lung cancer which has a mutation in the K-ras gene. This cell is sensitive to platinum compounds. In this cell line, cisplatin forms more adducts than oxaliplatin at the same concentration and yet the percentage repair is higher for oxaliplatin (DNA Repair 2006, 5: 219-225).
(§2) Cell proliferation is evaluated by the incorporation of ^14C-thymidine into the DNA of the cells. A549, CH1, CH1/DDP and H460 are cultured in Dulbecco's modified Eagle's medium (DMEM), SK-OV-3 in Mc-Coy medium, A2780 and A2780/DDP in RPMI1640 medium. All the media contain 10% foetal calf serum, 2 mM L-glutamine, 100 units/ml of penicillin and […] of streptomycin. The incubation is performed at 37° C. in a 95% air/5% CO2 atmosphere.
(§3) The cells, at the exponential growth phase, are introduced into the wells of a Cytostar 96-well plate, containing a scintillation fluid (Cytostar-T scintillating microplate, GE Healthcare Bio-Sciences AB, Uppsala, Sweden), at the density of 5×10^3 to 10^4 cells per well, in an amount of 180 μl per well. After incubating for 4 hours, the test compounds are added. The compounds are prepared beforehand as a stock solution at the concentration of 10 mM in DMSO. A serial dilution is performed before the compounds are brought into contact with the cells in a volume of 10 μl. After incubating for 72 hours at 37° C. in an atmosphere of 95% air/5% CO2, 0.1 μCi/well of ^14C-thymidine is added. 24 h later (total 96 h of treatment), the incorporation of ^14C-thymidine is recorded on a suitable scintillation counter (MicroBeta radioactivity counting, Perkin-Elmer Life Sciences, Boston, Mass., USA). The mean values obtained in the experimental groups are divided by the mean values obtained in the control groups in order to obtain percentages relative to the controls.
as §1

A2780/DDP = experiment: as above; conditions: A2780/DDP cisplatin-resistant human ovarian cancer, 96 h treatment
Excerpt: (§4) A2780 and A2780/DDP are human ovarian cancer lines. […] The resistance of the A2780/DDP line is of the acquired type and involves various mechanisms: —reduction in the capacity for internalization of cisplatin, —replicative bypass (this is defined as the possibility for a replicative complex to synthesize DNA beyond the site of damage) (Cancer Res 1994; 54:3500-3505), —active detoxification by glutathione (Exp Oncol 2005; 27:191-195), —low activity of Caspase-3, enzymes involved in the process of programmed cell death (J Cancer Res Clin Oncol 2004; 130:423-428) and finally high nuclear efflux of platinum compounds (Oncol Rep 2004; 12:1365-1370).
as §2, §3, §1

A2780 = experiment: as above; conditions: A2780 human ovarian cancer, 96 h treatment
Excerpt: as §4, §2, §3, §1

SK-OV-3 = experiment: as above; conditions: SK-OV-3 human ovarian cancer, 96 h treatment, read-out: SKOV3 IC50
Procedure: SK-OV-3 is a human ovarian cancer. […] This cell has an intrinsic mechanism of resistance to cisplatin which is linked to high levels of glutathione (Br J Cancer 1998; 78:175-180). This cell line is commonly used to explore the effects of high levels of glutathione on the resistance to platinum compounds (Br J Cancer 1996, 74: 380-386).
as §2, §3, §1

CH1/DDP = experiment: as above; conditions: CH1/DDP cisplatin-resistant human ovarian cancer, 96 h treatment
Excerpt: (§5) CH1 and CH1 CisR are human ovarian cancers which are sensitive and resistant to cisplatin, respectively. The relative sensitivity of the CH1 cell may be at least partially attributed to a deficiency of a gene involved in repair processes and which is capable of removing the adducts (Chemico-Biological Interactions, 1999; 123:11-29). The CH1cisR cell is resistant to cisplatin through a poorly known mechanism of DNA repair, or increase in the tolerance of the cell to the damage caused by cisplatin to the DNA of this cell (Mol Pharmacol 2003; 63:933-944, Cancer Res 52: 3857-3864).
as §2, §3, §1

CH1 = experiment: as above; conditions: CH1 human ovarian cancer, 96 h treatment
Excerpt: as §5, §2, §3, §1

Compound | IC50 (CCRF-CEM cells) | IC50 (H460) | IC50 (A2780/DDP) [µM] | IC50 (A2780) [µM] | IC50 (SK-OV-3) [µM] | IC50 (CH1/DDP) [µM] | IC50 (CH1) [µM]
[I][Pt-2]([I])([NH2+]C1CCCCC1)[c]1n(Cc2ccccc2)cc[n+]1Cc1ccccc1 [Example 12, trans-diiodo(N-cyclohexylamine)[1,3-dibenzylimidazol-2-ylidene]-platinum(II)] | 1.3 µM | 3.4 µM | 1.2 | 0.7 | 2.8 | – | –
Cn1[c](=[Pt-]([I])([I])[NH2+]C2CC3CCC2C3)n(C)c2ccccc21 (racemic) [Example 7, trans-diiodo(N-exo(+/−)bicyclo[2.2.1]heptylamine)(1,3-dimethyl-benzimidazol-2-ylidene)platinum(II)] | 1.3 µM | 1.9 µM | 1.8 | 0.4 | 7 | 2.4 | 2.5
Cn1ccn(CC2CCCCC2)[c]1=[Pt-]([I])([I])[NH2+]C1CCCCC1 [Example 3, trans-diiodo(N-cyclohexylamine)(1-methyl-3-cyclohexylmethylimidazol-2-ylidene)platinum(II)] | 2 µM | 3.8 µM | 1.2 | 1 | 5.3 | 2 | 2.3
COc1ccc(Cn2ccn(C)[c]2=[Pt]([I])([I])[NH]C2CCCCC2)cc1 [Example 10, trans-diiodo(N-cyclohexylamine)[1-methyl-3-(4-methoxybenzyl)-imidazol-2-ylidene]platinum(II)] | 1.6 µM | 3.8 µM | 2.3 | 1.6 | 5.2 | – | –
Cn1[c](=[Pt-]([I])([I])[NH2+]C2CC3CCC2C3)n(C)c2ccccc21 (single isomer, unassigned) [Example 16, trans-diiodo(N-exo(+)bicyclo[2.2.1]heptylamine)(1,3-di-methylbenzimidazol-2-ylidene)platinum(II)] | 1.4 µM | 4.1 µM | 2.7 | 1.1 | 4.1 | – | –
Cn1[c](=[Pt-]([I])([I])[NH2+]C2CC3CCC2C3)n(C)c2ccccc21 (single isomer, unassigned) [Example 17, trans-diiodo(N-exo(−)bicyclo[2.2.1]heptylamine)(1,3-dimethylbenzimidazol-2-ylidene)platinum(II)] | 1.8 µM | 1.1 µM | 2.2 | 1.1 | 5 | – | –
O=C1[O][Pt]2([NH][C@@H]3CCCC[C@H]3[NH]2)[O]C1=O [Oxaliplatin, oxaliplatin, reference compound] | 0.9 µM | 4 µM | 17.3 | 3.9 | > 10 | 6.2 | 4.2
N.N.[Cl][Pt][Cl] [Cisplatin, cisplatin, reference compound] | 3 µM | 2.4 µM | > 10 | 9 | 6.1 | > 10 | 8
Cn1ccn(Cc2ccccc2)[c]1=[Pt-]([I])([I])[NH2+]C1CCCCC1 [Example 5, trans-diiodo(N-cyclohexylamine)(1-methyl-3-benzylimidazol-2-ylidene)platinum(II)] | 1.2 µM and 1.4 µM | 1.7 µM and 2.7 µM | 1.8 | 0.9 | 6.5 | 2.4 | 2.4
Cn1c(=O)c2c(n(C)c1=O)n(C)[c](=[Pt-]([I])([I])[NH2+]C1CCCCC1)n2C [Example 9, trans-diiodo(N-cyclohexylamine)(1,3,7,9-tetramethylxanthin-8-ylidene)platinum(II)] | 2.7 µM | 1.6 µM | 1.4 | 1.8 | > 10 | 2.1 | 2.2
Cn1c(=O)c2c(n(C)c1=O)n(C)[c](=[Pt]([I])([I])[NH]C1CC3CCC1C3)n2C (racemic) [Example 25, trans-diiodo(N-exo(+/−)bicyclo[2.2.1]heptylamine) (1,3,7,9-tetramethylxanthin-8-ylidene)platinum(II)] | 1 µM | 1.5 µM | – | – | – | – | –
Cn1[c](=[Pt]([I])([I])[NH]C2CCCCC2)n(C)c2ccccc21 [Example 8, trans-diiodo(N-cyclohexylamine)(1,3-dimethylbenzimidazol-2-ylidene)platinum(II)] | 3.1 µM | 1.9 µM | – | – | – | – | –
Cn1ccn(Cc2ccc(C(F)(F)F)cc2)[c]1=[Pt-]([I])([I])[NH2+]C1CCCCC1 [Example 11, trans-diiodo(N-cyclohexylamine)[1-methyl-3-(4-trifluoromethylbenzyl)imidazol-2-ylidene]platinum(II)] | 1 µM | 1.5 µM | 1.1 | 0.8 | 2.6 | – | –
Cn1c(-c2ccccc2)c[n+](C)[c]1[Pt-2]([I])([I])[NH2+]C1CCCCC1 [Example 20, trans-diiodo(N-cyclohexylamine)[1,3-dimethyl-4-phenylimidazol-2-ylidene]platinum(II)] | 2.1 µM | 4.4 µM | – | – | – | – | –
Cn1ccn(C)[c]1=[Pt-]([I])([I])[NH2+]Cc1ccc(C(F)(F)F)cc1 [Example 14, trans-diiodo[N-4-(trifluoromethyl)benzylamine](1,3-dimethylimidazol-2-ylidene)platinum(II)] | 1.7 µM | 2.6 µM | – | – | – | – | –
